Results on 8 compounds are retold here after ChEMBL document CHEMBL5729568, “Ras inhibitors” (2023).

“Also recorded” adds a separate entry of the source.

Assay [1] can be described thus: (§1) Biochemical Assay: A variety of Ras proteins may be inhibited by compounds of the present invention (e.g., K-Ras, N-Ras, H-Ras, and mutants thereof at positions 12, 13 and 61, such as G12C, G12D, G12V, G12S, G13C, G13D, and Q61L, and others described herein). The purpose of this biochemical assay is to measure the ability of test compounds to covalently label nucleotide-loaded K-Ras isoforms. […] The sample is incubated at 25? C. for a time period of up to 24 hours prior to quenching by the addition of 10 uL of 5% Formic Acid. Quenched samples are centrifuged at 15000 rpm for 15 minutes in a benchtop centrifuge before injecting a 10 uL aliquot onto a reverse phase C4 column and eluting into the mass spectrometer with an increasing acetonitrile gradient in the mobile phase. Analysis of raw data may be carried out using Waters MassLynx MS software, with % bound calculated from the deconvoluted protein peaks for labeled and unlabeled K-Ras.

A short description of assay [2]: as §1. This is another data set of the same source.
Assay [3] is described as follows: as §1. This is another data set of the same source.
The nature of assay [4]: as §1. This is another data set of the same source.
A short description of assay [5]: as §1. The source holds these as a separate data set.
A short description of assay [6]: as §1. The source holds these as a separate data set.
Assay [7] in a line: as §1. This is another data set of the same source.

By IC50 is commonly meant the concentration needed to halve the response being measured. As to `CCn1c(-c2cccnc2C(C)OC)c2c3cc(ccc31)-c1cccc(c1)C[C@H](NC(=O)[C@@H](COC1CN(C(=O)C#C[C@H]3COCCN3C)C1)C(C)C)C(=O)N1CCC[C@H](N1)C(=O)OCC(C)(C)C2` (stereo not given in full), the IC50 was over 10 µM in assay [1]; “in the range around 0.055 µM” in assay [2]; over 10 µM in assay [3]; over 10 µM in assay [4]; “in the range around 5.5 µM” in assay [5]; over 10 µM in assay [6]. For the same compound, the half-maximal inhibitory concentration (IC50) in assay [7] was over 10 µM.

For the compound `CCn1c(-c2cccnc2C(C)OC)c2c3cc(ccc31)-c1csc(n1)C[C@H](NC(=O)[C@@H](COC1CN(C(=O)C#CC(C)(C)N(C)C)C1)C(C)C)C(=O)N1CCC[C@H](N1)C(=O)OCC(C)(C)C2` (stereo not given in full), the IC50 in assay [1] is over 10 µM; in assay [2], under 0.01 µM; in assay [3] it was “in the range around 5.5 µM”; in assay [4], over 10 µM; in assay [5] it was “in the range around 5.5 µM”; in assay [6] it was over 10 µM. For the same compound, the IC50 entry in assay [7] was “in the range around 5.5 µM”.

In the case of `C=CC(=O)N1CC[C@H](C(=O)N(C)[C@H](C(=O)N[C@H]2Cc3cc(sn3)-c3ccc4c(c3)c(c(-c3cccnc3[C@H](C)OC)n4CC)CC(C)(C)COC(=O)[C@@H]3CCCN(N3)C2=O)C(C)C)C1`, the IC50 entry in assay [4] is “in the range around 5.5 µM; also recorded: in the range around 550 nM”.

In the case of `C=C(C)C(=O)N1CC(N(C)C(=O)N(C)[C@H](C(=O)N[C@H]2Cc3nc(cs3)-c3ccc4c(c3)c(c(-c3cccnc3[C@H](C)OC)n4CC)CC(C)(C)COC(=O)[C@@H]3CCCN(N3)C2=O)C(C)C)C1` (atropisomer, axis not shown), the IC50 entry in assay [1], in assay [3], in assay [4], in assay [5] and in assay [7] was “in the range around 5.5 µM” in each case.

For `CCn1c(-c2cccnc2C(C)OC)c2c3cc(ccc31)-c1cccc(c1)C[C@H](NC(=O)[C@H](C(C)C)N(C)C(=O)[C@H]1CCN(C(=O)/C=C/C(F)F)C1)C(=O)N1CCC[C@H](N1)C(=O)OCC(C)(C)C2` (stereo not given in full), the IC50 result is “in the range around 5.5 µM” in assay [1]; “in the range around 0.055 µM” in assay [2]; “in the range around 5.5 µM” in assay [3]; “in the range around 0.55 µM” in assay [5]; “in the range around 5.5 µM” in assay [6].

As for `C=CC(=O)N1CC(OCC(C(=O)N[C@H]2Cc3cc(cc(C(F)F)c3)-c3ccc4c(c3)c(c(-c3cccnc3C(C)OC)n4CC)CC(C)(C)COC(=O)[C@@H]3CCCN(N3)C2=O)C(C)C)C1` (stereo not given in full), the IC50 in assay [1], in assay [2], in assay [3], in assay [5] and in assay [6] was over 10 µM in each case.

Take `C=CC(=O)N1CC[C@H](C(=O)N(C)[C@H](C(=O)N[C@H]2Cc3nc(ns3)-c3ccc4c(c3)c(c(-c3cncnc3[C@H](C)OC)n4CC)CC(C)(C)CC=C[C@@H]3CCCN(N3)C2=O)C(C)C)C1` (stereo in doubt): the IC50 in assay [1], in assay [2], in assay [3], in assay [5] and in assay [6] was over 10 µM in each case.

In the case of `CCn1c(-c2cccnc2C(C)OC)c2c3cc(ccc31)-c1cccc(c1)C[C@H](NC(=O)CCOC1CN(C(=O)C#CC(C)(C)N(C)C)C1)C(=O)N1CCC[C@H](N1)C(=O)OCC(C)(C)C2` (stereo not given in full), the half-inhibitory concentration (IC50) in assay [1] is over 10 µM; in assay [2] it was “in the range around 0.055 µM”; in assay [3] it was over 10 µM; in assay [5], over 10 µM; in assay [6], over 10 µM.
